Test results from patent US20110086103A1, “NOVEL MANDELATE SALT OF FESOTERODINE” (ACTAVIS GROUP PTC EHF, priority 2008, published 2011).
Structures can show the parent of a compound that is named as a salt.

Assays:
[1] = Stability of solid state form (polymorphic stability by P-XRD on storage); type: physicochemical; settings: stored 3 months in self-sealing LDPE bag, normal atmospheric conditions, room temperature
Experimental: The X-Ray powder diffraction was measured by an X-ray powder Diffractometer equipped with CuKα-radiations (40 kV, 40 mA) in wide-angle X-ray Diffractometer of BRUKER axs, D8 ADVANCE. The sample was analyzed using the following instrument parameters: measuring range 3-45° 2-theta; step width=0.01579°; and measuring time per step=0.11 sec. Fesoterodine mandelate was prepared according to the process exemplified in Example 1 and was packed in a self-sealing low-density polyethylene (LDPE) bag. The material was stored for 3 months under normal atmospheric conditions at room temperature and checked for polymorphic stability.

[2] = Moisture absorption during filtration of the salt; type: physicochemical

Question: For `CC(C)C(=O)Oc1ccc(CO)cc1[C@H](CCN(C(C)C)C(C)C)c1ccccc1.O=C(O)C(O)c1ccccc1` [Fesoterodine mandelate, mandelate salt of 2-[(1R)-3-[bis(1-methylethyl)amino]-1-phenylpropyl]-4-hydroxymethylphenyl isobutyrate], which “polymorphic stability (maintenance of the original P-XRD pattern)” value [1] is on record?
Answer: Its value is “retain its polymorphic form”.

Question: And the moisture absorption [2]?
Answer: Its moisture absorption is “does not absorb moisture”.

Question: With `CC(C)C(=O)Oc1ccc(CO)cc1[C@H](CCN(C(C)C)C(C)C)c1ccccc1` [fumarate salt, fesoterodine fumarate, reference compound] as the molecule, how does the moisture absorption [2] read?
Answer: The moisture absorption was “absorbs moisture”.
